According to US20060069132A1, “Azolecarboxamide herbicides” (priority 2004, published 2006):

Key:
barnyardgrass = assay: Test A pre-/postemergence herbicide test; type: in vivo, Echinochloa crus-galli
Outline: (§1)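 Both application timings were run together: directed soil spray over freshly planted seeds in sandy loam, and runoff spray onto 2–10 cm seedlings. Evaluation after ~10 days in greenhouse used a 0–100 visual scale versus untreated controls.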

large crabgrass = assay: Test A pre-/postemergence herbicide test; type: in vivo, Digitaria sanguinalis
Outline: as §1

morningglory = assay: Test A pre-/postemergence herbicide test; type: in vivo, Ipomoea spp.
Outline: as §1

rice = assay: Test B pre-/postemergence herbicide test; type: in vivo, Oryza sativa; conditions: preemergence
Outline: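 Seeds were planted and treated preemergence with compounds formulated in a non-phytotoxic solvent mixture containing surfactant, while plants at the 1- to 4-leaf stage (2 to 18 cm) received postemergence sprays. Flooded paddy plants were grown to the 2-leaf stage. After 13 to 15 days in a greenhouse, injury was visually rated 0–100 against untreated controls.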

Surinam grass = assay: Test C pre-/postemergence herbicide test; type: in vivo, Urochloa decumbens
Outline: (§2)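 Emerged plants at the 1- to 4-leaf stage (2–18 cm), or freshly planted seeds, received test chemicals in a non-phytotoxic solvent mixture with surfactant. Response was visually scored against controls after 12 to 14 days in the greenhouse, on a 0 (no effect) to 100 (complete control) scale.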

[1] = system: common (oilseed) sunflower; assay: Test C pre-/postemergence herbicide test; type: in vivo, Helianthus annuus; conditions: for Plant response rating (0 = no effect, 100 = complete control), Sunflower / Plant response rating, Sunflower: preemergence; for Sunflower plant response rating: Preemergence, scale 0 to 100, 0 no effect, 100 complete control
Outline: as §2

[2] = Postemergence, 500 g ai/ha, 0 to 100 scale, 0 no effect, 100 complete control
[3] = Postemergence, 2000 g ai/ha, 0 to 100 scale, 0 no effect, 100 complete control
[4] = Preemergence, 500 g ai/ha, visual rating, 0 to 100 scale (0 no effect, 100 complete control)
[5] = Preemergence, 2000 g ai/ha, 0 to 100 scale, 0 no effect, 100 complete control
[6] = 125 g ai/ha, 0 to 100 scale, 0 is no effect, 100 is complete control
[7] = 125 g ai/ha, scale 0 (no effect) to 100 (complete control), visual, 12 to 14 days, preemergence
[8] = Preemergence, 500 g ai/ha, scale 0 to 100, 0 no effect, 100 complete control
[9] = 125 g ai/ha, scale 0 (no effect) to 100 (complete control), visual, 12 to 14 days
[10] = Preemergence, 2000 g ai/ha, visual rating, 0 to 100 scale (0 no effect, 100 complete control)
[11] = 500 g ai/ha, visual rating 0-100, 0 no effect, 100 complete control
[12] = 62 g ai/ha, preemergence, scale 0 to 100
[13] = preemergence, 500 g ai/ha, visual injury, 0 to 100 scale (0 no effect, 100 complete control)
[14] = 125 g ai/ha, 0 = no effect, 100 = complete control
[15] = 250 g ai/ha, scale 0-100, preemergence
[16] = 500 g ai/ha, scale 0 to 100 (0 no effect, 100 complete control), visual, 12 to 14 days, preemergence
[17] = Postemergence, 500 g ai/ha, scale 0 to 100
[18] = Postemergence, 250 g ai/ha, scale 0 to 100, 0 no effect, 100 complete control
[19] = postemergence, 125 g ai/ha, scale 0 to 100
[20] = postemergence, 62 g ai/ha, scale 0 to 100
[21] = 500 g ai/ha, scale 0 to 100 (0 no effect, 100 complete control), visual, 12 to 14 days
[22] = 125 g ai/ha, 0 is no effect, 100 is complete control
[23] = 500 g ai/ha, visual rating, 0 = no effect, 100 = complete control

SMILES | Plant response rating, Barnyardgrass (barnyardgrass; [3]) | Plant response rating, Crabgrass, Large (large crabgrass; [3]) | Plant response rating, Morningglory (morningglory; [3]) | Plant response rating, Surinam Grass (Surinam grass; [7]) | Surinam Grass plant response rating (Surinam grass; [8]) | Plant response rating, Sunflower [1, 9] | Sunflower plant response rating ([1]; 500 g ai/ha) | Barnyardgrass plant response rating (barnyardgrass; [2]) | Barnyardgrass plant response rating (barnyardgrass; [10]) | Crabgrass, Large plant response rating (large crabgrass; [2]) | Crabgrass, Large plant response rating (large crabgrass; [10]) | Morningglory plant response rating (morningglory; [2]) | Morningglory plant response rating (morningglory; [10]) | Plant response rating, Rice (rice; [11]) | Plant response rating, Surinam Grass (Surinam grass; [12]) | Plant response rating, Sunflower ([1]; 62 g ai/ha, scale 0 to 100) | Barnyardgrass plant response rating (barnyardgrass; [13]) | Crabgrass, Large plant response rating (large crabgrass; [13]) | Morningglory plant response rating (morningglory; [13]) | Plant response rating, Surinam Grass (Surinam grass; [15]) | also measured
CCn1nc(C(C)(C)C)cc1C(=O)Nc1cccc(C(=O)NCC(C)C)c1 [Compound 61] | 90 | 45 | 20 | 0 | 5 | 0 | 0 | – | – | – | – | – | – | – | – | – | – | – | – | – | Plant response rating, Barnyardgrass (barnyardgrass; [2]): 35; Barnyardgrass plant response rating (barnyardgrass; [4]): 40; Barnyardgrass plant response rating (barnyardgrass; [5]): 75; Plant response rating, Crabgrass, Large (large crabgrass; [2]): 30; Crabgrass, Large plant response rating (large crabgrass; [4]): 75; Crabgrass, Large plant response rating (large crabgrass; [5]): 90; Plant response rating, Morningglory (morningglory; [2]): 10; Morningglory plant response rating (morningglory; [4]): 20; Morningglory plant response rating (morningglory; [5]): 50; Plant response rating, Rice (rice; [6]): 0; Plant response rating (0 = no effect, 100 = complete control), Surinam Grass (Surinam grass; 62 g ai/ha, preemergence): 0; Plant response rating, Surinam Grass (Surinam grass; 250 g ai/ha, scale 0 to 100 (0 no effect, 100 complete control), visual, 12 to 14 days, preemergence): 5; Plant response rating (0 = no effect, 100 = complete control), Sunflower ([1]; 62 g ai/ha): 0; Plant response rating, Sunflower ([1]; 250 g ai/ha, scale 0 to 100 (0 no effect, 100 complete control), visual, 12 to 14 days): 0
CCCCOc1cccc(NC(=O)c2cc(C(C)(C)C)nn2CC)c1 [Compound 137] | 25 | 60 | 40 | 10 | 60 | 0 | 0 | 20 | 60 | 30 | 90 | 25 | 35 | 10 | – | – | – | – | – | – | Barnyardgrass plant response rating (barnyardgrass; [4]): 30; Crabgrass, Large plant response rating (large crabgrass; [4]): 55; Morningglory plant response rating (morningglory; [4]): 20; Plant response rating (0 = no effect, 100 = complete control), Surinam Grass (Surinam grass; 62 g ai/ha, preemergence): 0; Plant response rating (0 = no effect, 100 = complete control), Sunflower ([1]; 62 g ai/ha): 0
CCN(CC)C(=O)c1ccnc(NC(=O)c2cc(C(C)(C)C)nn2CC)c1 [Compound 153] | 100 | 20 | 85 | 0 | 100 | 0 | 0 | 75 | 90 | 10 | 25 | 35 | 55 | 20 | 0 | 0 | – | – | – | – | Barnyardgrass plant response rating (barnyardgrass; [4]): 80; Crabgrass, Large plant response rating (large crabgrass; [4]): 25; Morningglory plant response rating (morningglory; [4]): 10; Plant response rating, Rice (rice; [6]): 10
CCN(CC)C(=O)c1cccc(NC(=O)c2sc(C(C)(C)C)nc2C)c1 [Compound 199] | 80 | 50 | 70 | 0 | 75 | 0 | 0 | 10 | 95 | 15 | 100 | 45 | 55 | 20 | 0 | 0 | 55 | 70 | 15 | 30 | Rice plant response rating (0 to 100 scale) (rice; [14]): 0; Plant response rating, Sunflower ([1]; 250 g ai/ha, scale 0-100): 0
CCc1nc(C(C)(C)C)sc1C(=O)Nc1cccc(C(=O)N(CC)CC)c1 [Compound 205] | 65 | 20 | 20 | 20 | 85 | 0 | 0 | 45 | 90 | 10 | 95 | 25 | 45 | 70 | 0 | 0 | 80 | 80 | 30 | 50 | Rice plant response rating (0 to 100 scale) (rice; [14]): 10; Plant response rating, Sunflower ([1]; 250 g ai/ha, scale 0-100): 0
CCc1nc(C(C)(C)C)sc1C(=O)Nc1cccc(C(=O)NCC2CC2)c1 [Compound 212] | 90 | 60 | 20 | 0 | – | 0 | – | 50 | 85 | 45 | 95 | 15 | 65 | 20 | 0 | 0 | 80 | 90 | 30 | 5 | Rice plant response rating (0 to 100 scale) (rice; [14]): 10; Plant response rating, Surinam Grass (Surinam grass; [16]): 20; Surinam Grass plant response rating (Surinam grass; [17]): 50; Plant response rating, Surinam Grass (Surinam grass; [18]): 20; Plant response rating, Surinam Grass (Surinam grass; [19]): 5; Plant response rating, Surinam Grass (Surinam grass; [20]): 0; Plant response rating, Sunflower ([1]; 250 g ai/ha, scale 0-100): 0; Plant response rating, Sunflower [1, 21]: 0
CCN(CC)C(=O)c1cccc(NC(=O)c2cc(C(C)(C)C)nn2C)n1 [Compound 314] | 75 | 60 | 50 | – | – | – | – | 35 | 90 | 20 | 90 | 30 | 30 | – | 0 | 0 | 50 | 55 | 10 | 0 | Plant response rating (0 to 100 scale), Rice (rice; [22]): 0; Plant response rating, Rice (rice; [23]): 10; Plant response rating, Surinam Grass (Surinam grass; [16]): 20; Plant response rating, Sunflower ([1]; 250 g ai/ha, scale 0-100): 20; Plant response rating, Sunflower [1, 21]: 45
C=CCNC(=O)c1cccc(NC(=O)c2cc(C(C)(C)C)nn2C)n1 [Compound 318] | 90 | 70 | 55 | – | – | – | – | 65 | 95 | 30 | 70 | 50 | 50 | – | 10 | 0 | 65 | 55 | 20 | 50 | Plant response rating (0 to 100 scale), Rice (rice; [22]): 0; Plant response rating, Rice (rice; [23]): 50; Plant response rating, Surinam Grass (Surinam grass; [16]): 60; Surinam Grass plant response rating (Surinam grass; [17]): 10; Plant response rating, Surinam Grass (Surinam grass; [18]): 0; Plant response rating, Surinam Grass (Surinam grass; [19]): 0; Plant response rating, Surinam Grass (Surinam grass; [20]): 0; Plant response rating, Sunflower ([1]; 250 g ai/ha, scale 0-100): 0; Plant response rating, Sunflower [1, 21]: 0
